Measurements reported in patent US20030143757A1, “Methods for identifying drug cores” (priority 1997, published 2003).

Target: p38 MAP kinase (Homo sapiens, UniProt Q16539)
Details: 1 mM each drug core, 0.2 mM p38 MAP kinase, 5° C., pD* 8.4, relaxation filter
Protocol: All the spectra were acquired at 5° C. using a Bruker DMX 500 MHz NMR spectrometer. NOESY spectra were collected using 16 transients with 2048 points in ω2 and 400 points in ω1 and a mixing time of 400 ms for the drug core mixture in the absence of target and 100 ms for the drug core mixture in the presence of p38. A spin echo with an echo delay of 5 ms was used as a relaxation filter before the t1 evolution period in all experiments. Samples contained 1 mM of each drug core, 0.2 mM p38 MAP kinase, 25 mM deutero-Tris, 10% (v/v) deutero-glycerol, 20 mM deutero-dithiothreitol at pD*=8.4.

p38 MAP kinase, sequence (Q16539 whole entry): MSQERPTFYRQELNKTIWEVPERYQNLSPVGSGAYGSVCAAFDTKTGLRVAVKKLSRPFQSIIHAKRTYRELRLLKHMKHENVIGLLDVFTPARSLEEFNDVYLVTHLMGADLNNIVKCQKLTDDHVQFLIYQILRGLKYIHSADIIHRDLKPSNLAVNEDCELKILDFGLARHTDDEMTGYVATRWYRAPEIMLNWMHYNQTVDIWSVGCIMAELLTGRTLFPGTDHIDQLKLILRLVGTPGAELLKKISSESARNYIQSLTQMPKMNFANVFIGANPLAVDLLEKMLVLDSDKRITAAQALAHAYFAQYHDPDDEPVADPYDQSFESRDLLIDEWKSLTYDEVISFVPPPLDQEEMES

O=C(O)c1cccnc1 [nicotinic acid]
binding to p38 MAP kinase by line broadening and peak height attenuation in 1D NMR: does not
